In patent US6737409B2, “Dolastatin 10 derivatives” (Hoffmann-La Roche Inc., priority 2001, dated 2004):

Assays:
HCT 116 = assay: Antiproliferative activity assay (WST-8); format: cell-based; conditions: Homo sapiens, HCT-116, 96 h; incubated 4 days, WST-8; concentration of drug yielding 50% OD of the control growth; read-out: HCT 116 IC50
[1] = Maximum tolerated dose (MTD) by i.v. administration in mice; conditions: mouse, in vivo, iv, read-out: maximum tolerated doses (MTD)
Protocol: The maximum tolerated doses (MTD) of the following representative compounds
of the present invention were examined by i.v. administration in mice. The respective MTD values of the compounds were 14, 18, 10, 8, 8, 2 and 2 mg/kg.

In the case of `CCC(C)C(C(CC(=O)N1CCCC1C(CC(=O)NCCc1ccccc1)SC)OC)N(C)C(=O)C(NC(=O)C(NC)C(C)C)C(C)C` (stereo not shown) [N-[1-({1-sec-Butyl-2-methoxy-4-[2-(1-methylsulfanyl-2-phenethylcarbamoylethyl)pyrrolidin-1-yl]-4-oxo-butyl}-methyl-carbamoyl)-2-methyl-propyl]-3-methyl-2-methylamino-butyramide], the IC50 (HCT 116) is reported as 0.12 nM and the MTD [1] is reported as 14 mg/kg.
`CCSC(C(C)C(=O)N(C)CCc1cccc(O)c1)C1CCCN1C(=O)CC(OC)C(C(C)CC)N(C)C(=O)C(NC(=O)C(C(C)C)N(C)C)C(C)C` (single isomer, unassigned) [N-[1-({1-sec-Butyl-4-[2-(1-ethylsulfanyl-2-{[2-(3-hydroxy-phenyl)-ethyl]-methyl-carbamoyl}-propyl)-pyrrolidin-1-yl]-2-methoxy-4-oxo-butyl}-methyl-carbamoyl)-2-methyl-propyl]-2-dimethylamino-3-methyl-butyramide] showed an IC50 (HCT 116) of 0.11 nM and an MTD [1] of 8 mg/kg.
